# Where a SMILES comes first, the peptide text is derived from it. Bridges are numbered along the chain shown (N, C = ends). The star is where a group is joined. Palmitoyl = CCCCCCCCCCCCCCCC(=O)*
# How the values were obtained:
# Assay type in all cases: cell-based
# [1] = tested on: Staphylococcus epidermidis ATCC 14990; settings: ATCC 14990, 24 h
# Experimental: (§1) The Staphylococcus aureus ATCC 25923, Staphylococcus epidermidis ATCC 14990, Escherichia coli ATCC 25922, Pseudomonas aeruginosa ATCC 9027, Candida albicans ATCC 10231, Candida glabrata ATCC 15126, Candida lipolytica PCM 2680-FY, and Candida tropicalis PCM 2709-FY strains were acquired from the Polish Collection of Microorganisms (PCM, Polish Academy of Sciences, Wrocław, Poland) and from the American Type Culture Collection (ATCC). All the strains were stored at −80 °C in Roti-Store cryo vials and before the tests were transferred into fresh Mueller–Hinton broth (MHB, Biocorp, Warsaw, Poland) for bacteria or RPMI-1640 (Sigma-Aldrich, Steinheim, Germany) for fungi and incubated for 24 h at 37 °C. Then, the cultures were seeded on Mueller–Hinton agar (BioMaxima, Lublin, Poland) or Sabouraud dextrose agar (SDA, BioMaxima, Lublin, Poland) plates, respectively, and incubated as just mentioned. These agar cultures were used for further microbiological assays. Cell densities for all assays were adjusted spectrophotometrically (Multiskan GO Microplate Spectrophotometer, Thermo Fisher Scientific, Vantaa, Finland) at 600 and 660 nm for bacteria and fungi, respectively.
# (§2) MBECs were determined on 96-well polystyrene flat-bottom plates. For this purpose, 24 h cultures of microorganisms were diluted to obtain final density 5.0 × 10^5 CFU/mL and 2.0 × 10^5 CFU/mL of bacteria and fungi, respectively. Briefly, 100 µL of cell suspension was added into the test plates. After 24 h of incubation at 37 °C the wells were rinsed three times with a phosphate buffer saline (PBS, pH 7.4) to remove non-adherent cells. Subsequently, 100 μL of the test compounds in concentration range (0.5–256 μg/mL) were added to each well. After 24 h of incubation at 37 °C, 20 μL of a cell viability reagent was added (resazurin, 4 g/L; Sigma Aldrich, St. Louis, MO, USA). The MBEC was read after 1 h. The determined values were recorded as the lowest concentration at which the reduction of resazurin (from blue to pink) was lower or equal to 10 ± 0.5% as compared to the positive (100%) and negative (0%) controls. The reduction was monitored by measuring absorbance at 570 nm (reduced) and 600 nm (oxidized) using a microplate spectrophotometer (Multiskan GO Microplate Spectrophotometer, Thermo Fisher Scientific, Vantaa, Finland). All experiments were conducted in triplicate.
# [2] = tested on: Candida tropicalis PCM 2709-FY; settings: PCM 2709-FY, 24 h
# Experimental: as §1, §2
# [3] = tested on: Candida glabrata ATCC 15126; settings: ATCC 15126, 24 h
# Experimental: as §1, §2
# [4] = tested on: Escherichia coli ATCC 25922; settings: ATCC 25922, 24 h
# Experimental: as §1, §2
# [5] = tested on: Candida lipolytica PCM 2680-FY; settings: 24 h
# Experimental: as §1, §2
# [6] = tested on: Pseudomonas aeruginosa ATCC 9027; settings: ATCC 9027, 24 h
# Experimental: as §1, §2
# [7] = tested on: Candida albicans ATCC 10231; settings: ATCC 10231, 24 h
# Experimental: as §1, §2
# [8] = tested on: Staphylococcus epidermidis ATCC 14990; settings: ATCC 14990, 18 h
# Experimental: as §1
# (§3) The MICs were determined by broth microdilution method according to the Clinical and Laboratory Standard Institute guidelines For this purpose, initial inoculums of bacteria (5 × 10^5 CFU/mL) in MHB and yeasts (2 × 10^3 CFU/mL) in RPMI-1640 with 2% D-glucose were exposed to the ranging concentration of lipopeptides (0.5–256 μg/mL) and incubated at 37 °C for 18 h and 24 h, respectively. The experiments were conducted on 96-well microtiter polystyrene plates. The growth was assessed visually after incubation and the MIC was assumed as the lowest peptide concentration at which a noticeable growth of microorganisms was inhibited. All experiments were conducted in triplicate.
# [9] = tested on: Candida tropicalis PCM 2709-FY; settings: PCM 2709-FY, 24 h; remark: listed apart in the source
# Experimental: as §1, §3
# [10] = tested on: Candida glabrata ATCC 15126; settings: ATCC 15126, 24 h; remark: listed apart in the source
# Experimental: as §1, §3
# [11] = tested on: Escherichia coli ATCC 25922; settings: ATCC 25922, 18 h
# Experimental: as §1, §3
# [12] = tested on: Candida lipolytica PCM 2680-FY; settings: 24 h; remark: listed apart in the source
# Experimental: as §1, §3
# [13] = tested on: Pseudomonas aeruginosa ATCC 9027; settings: ATCC 9027, 18 h
# Experimental: as §1, §3
# [14] = tested on: Candida albicans ATCC 10231; settings: ATCC 10231, 24 h; remark: listed apart in the source
# Experimental: as §1, §3
# [15] = tested on: human cervical adenocarcinoma cell line (HeLa S3); test: MTT assay; settings: 24 h incubation at 37 °C, six replicates per concentration, repeated at least twice
# Experimental: (§4) To assess the cytotoxicity of the test lipopeptides (IC50), the classic MTT assay on 96-well polystyrene plates was performed for human keratinocytes (HaCaT) and human cervical adenocarcinoma cell line (HeLa S3) acquired from the ATCC. The assay utilizes colorimetric determination of the cell metabolic activity and the color intensity reflects the number of live cells that can be measured spectrophotometrically. The cell line was cultured in a Dulbecco’s modified Eagle Medium (Invitrogen) supplemented with 10% fetal bovine serum (v/v), 100 units/mL of penicillin, 100 μg/mL of streptomycin, and 2 mM l-glutamine and was stored at 37 °C in a humidified 5% CO2 incubator. Briefly, a day after plating of 500 cells per well, a series of concentrations (0.1–200 μg/mL) of the test compounds were applied. DMSO was added to the control cells at a final concentration of 1.0% (v/v), which was related to the maximal concentration of the solvent compounds used in the experiment. After 24 h of incubation with the lipopeptides at 37 °C in a humidified 5% CO2 incubator, a medium containing 1 mg/mL of MTT (3-(4,5-dimethylthiazol-2-yl)-2,5-diphenyltetrazolium bromide) was added to the wells up to a final concentration of 0.5 mg/mL. Subsequently, the plates were incubated at 37 °C for 4 h. Then, the medium was removed by suction, and the formazan product was solubilized with DMSO. The background absorbance at 630 nm was subtracted from that at 570 nm for each well (Epoch, BioTek Instruments, Winooski, VT, USA). Six replicates were conducted for each concentration. All experiments were repeated at least twice and the resulting IC50 values were calculated with a GraFit 7 software (v. 7.0, Erithacus, Berkley, CA, USA).
# [16] = tested on: human keratinocytes (HaCaT); test: MTT assay; settings: 24 h incubation at 37 °C, six replicates per concentration, repeated at least twice
# Experimental: as §4
SMILES,MBEC S. epidermidis [1],MBEC C. tropicalis [2],MBEC C. glabrata [3],MBEC E. coli [4],MBEC C. lipolytica [5],MBEC P. aeruginosa [6],MBEC C. albicans [7],MIC S. epidermidis [8],MIC C. tropicalis [9],MIC C. glabrata [10],MIC E. coli [11],MIC C. lipolytica [12],MIC P. aeruginosa [13],MIC C. albicans [14],HeLa IC50 [15],HaCaT IC50 [16]
"CCCCCCCCCCCCCCCC(=O)N[C@H]1CSSC[C@@H](C(N)=O)NC(=O)[C@H](CCCNC(=N)N)NC(=O)[C@H](CCCCN)NC(=O)[C@H](CCCCN)NC(=O)[C@H](CCCCN)NC1=O [C6, C16-CKKKRC-NH2] (Palmitoyl-CKKKRC-NH2; disulfide 1-6)",128 µg/mL,32 µg/mL,64 µg/mL,>256 µg/mL,16 µg/mL,>256 µg/mL,64 µg/mL,8 µg/mL,2 µg/mL,4 µg/mL,32 µg/mL,2 µg/mL,128 µg/mL,4 µg/mL,30.4 ± 2.5 µg/mL,45.7 ± 13.5 µg/mL
"CCCCCCCCCCCCCCCC(=O)N[C@@H](CCCNC(=N)N)C(=O)N[C@@H](CCCCN)C(=O)N[C@@H](CCCCN)C(=O)N[C@@H](CCCCN)C(N)=O [L3, C16-RKKK-NH2] (Palmitoyl-RKKK-NH2)",32 µg/mL,32 µg/mL,128 µg/mL,128 µg/mL,32 µg/mL,256 µg/mL,128 µg/mL,8 µg/mL,8 µg/mL,64 µg/mL,8 µg/mL,8 µg/mL,32 µg/mL,8 µg/mL,8.4 ± 1.7 µg/mL,23.6 ± 3.4 µg/mL
"CCCCCCCCCCCCCCCC(=O)N[C@H]1CSSC[C@@H](C(N)=O)NC(=O)[C@H](CCCCN)NC(=O)[C@H](CCCCN)NC(=O)[C@H](CCCNC(=N)N)NC(=O)[C@H](CCCCN)NC1=O [C4, C16-CKRKKC-NH2] (Palmitoyl-CKRKKC-NH2; disulfide 1-6)",32 µg/mL,32 µg/mL,64 µg/mL,64 µg/mL,16 µg/mL,>256 µg/mL,32 µg/mL,8 µg/mL,2 µg/mL,4 µg/mL,32 µg/mL,1 µg/mL,256 µg/mL,2 µg/mL,27.5 ± 3.4 µg/mL,33.8 ± 3.1 µg/mL
"CCCCCCCCCCCCCCCC(=O)N[C@@H](CCCCN)C(=O)N[C@@H](CCCCN)C(=O)N[C@@H](CCCCN)C(=O)N[C@@H](CCCCN)C(N)=O [L2, C16-KKKK-NH2] (Palmitoyl-KKKK-NH2)",32 µg/mL,128 µg/mL,256 µg/mL,64 µg/mL,64 µg/mL,>256 µg/mL,256 µg/mL,8 µg/mL,4 µg/mL,64 µg/mL,32 µg/mL,8 µg/mL,16 µg/mL,32 µg/mL,12.8 ± 1.1 µg/mL,23.5 ± 1.3 µg/mL
"CCCCCCCCCCCCCCCC(=O)N[C@@H](CCCCN)C(=O)N[C@@H](CCCCN)C(=O)N[C@@H](CCCCN)C(=O)N[C@@H](CCCNC(=N)N)C(N)=O [L6, C16-KKKR-NH2] (Palmitoyl-KKKR-NH2)",32 µg/mL,128 µg/mL,128 µg/mL,256 µg/mL,32 µg/mL,256 µg/mL,128 µg/mL,4 µg/mL,8 µg/mL,64 µg/mL,8 µg/mL,8 µg/mL,64 µg/mL,32 µg/mL,3.6 ± 0.5 µg/mL,7.5 ± 0.8 µg/mL
"CCCCCCCCCCCCCCCC(=O)N[C@@H](CCCCN)C(=O)N[C@@H](CCCNC(=N)N)C(=O)N[C@@H](CCCCN)C(=O)N[C@@H](CCCCN)C(N)=O [L4, C16-KRKK-NH2] (Palmitoyl-KRKK-NH2)",32 µg/mL,64 µg/mL,128 µg/mL,64 µg/mL,32 µg/mL,>256 µg/mL,128 µg/mL,8 µg/mL,2 µg/mL,32 µg/mL,8 µg/mL,1 µg/mL,32 µg/mL,16 µg/mL,3.0 ± 0.6 µg/mL,4.3 ± 0.9 µg/mL

# — paper PMC7582905, “Effect of Disulfide Cyclization of Ultrashort Cationic Lipopeptides on Antimicrobial Activity and Cytotoxicity” (International Journal of Molecular Sciences, 2020)
